Data reported in US20030118636A1, “Delivery of small hydrophilic molecules packaged into lipid vesicles” (priority 2001, published 2003).
Like-named read-outs stand apart in the source and are kept apart here. Values belong to the molecule of their own block, whether it stands above or below them.

Key:
[1] = molecular target: T1, MscL mutant G22C (Escherichia coli, UniProt P0A742, G22C); type: biochemical, E. coli; settings: for kinetics of calcein release compared to MTSET: 2.5 mM MTSEA, 10 mM MTSES
T1 construct: expressed in transfected cells
T1 sequence (P0A742 2-136 G22C): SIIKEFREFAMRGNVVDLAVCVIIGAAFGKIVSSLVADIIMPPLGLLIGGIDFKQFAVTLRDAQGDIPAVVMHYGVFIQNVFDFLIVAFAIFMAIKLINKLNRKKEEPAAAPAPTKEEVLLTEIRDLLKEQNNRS
Description: Samples were prepared, and calcein efflux was monitored as described in examples 1 and 2A.
The membrane reconstitution mixture was incubated for 30 min. at room temperature and 40 mg of detergent-absorbing Bio-Beads SM-2 (Bio-Rad, Inc.) was added and incubated at 4° C. for 30 min. Next, 400 mg Bio-Beads were added and incubated overnight at 4° C. All steps were performed under mild agitation. Samples were prepared for calcein efflux assay as described in example 1.

[2] = molecular target: T1, MscL mutant G22C; settings: no tension applied (Yoshimura et al.); cited from earlier work
[3] = molecular target: T2, MscL (Escherichia coli, UniProt P0A742, G22C); type: biochemical, E. coli
T2 construct: made in house; host or cells: E. coli PB104
T2 sequence (P0A742 2-136 G22C): as above

[4] = molecular target: T1, MscL mutant G22C; type: biochemical, E. coli
Description: FIGS. 10A-10D. […] Pressure in the pipette, relative to atmospheric, is shown in the lower traces of FIGS. 10A and 10B, and recordings of the current through a cell attached patch of a spheroplast are shown in the upper traces of FIGS. 10A and 10B. […] Buffer: 200 mM KCl, 90 mM MgCl2, 110 mM CaCl2, 5 mM HEPES, pH 6.0. FIGS. 10C and 10D show the histograms of the conductivity preferences of FIGS. 10A and 10B, respectively.
FIGS. 14A-14D. […] 5 μl of G22C spheroplasts were incubated with IMI (2 mM final concentration) or with patch buffer overnight at 4° C. The next day, currents through cell-attached patches held at +20 mV were recorded for unlabeled (FIG. 14A) and labeled (FIG. 14B) proteins and histograms showing the conductance states of each recording are illustrated in FIG. 14C and FIG. 14D, respectively.
Expression, purification, membrane reconstitution, and patch clamp analysis were performed as described in Example 1 or as described below.
Giant spheroplasts were prepared as explained before (Blount, P. et al., Methods Enzymol. Vol. 294:458-482, 1999).

[5] = rat; cited from earlier work
[6] = Urinary excretion of IOT after subcutaneous injection in conscious rats; type: in vivo, rat; settings: free IOT
Description: DOPC/DOPS (90:10, mol/mol) and DOPC/DOPE liposomes (70:30, mol/mol) were tested.
Male Wistar rats remained conscious throughout the study. To increase the resolution time, the diuretic furosemide (10 mg/kg dose s.c.) was given in the morning, 7 hours before administration of the sample. Urine was collected automatically with a 1 hour resolution. The concentration of IOT in the urine was measured by HPLC.

[7] = molecular target: T1, MscL mutant G22C; assay: FITC-insulin efflux from liposomes with MscL mutant G22C (filter assay); type: biochemical, E. coli; settings: 1 mM MTSET; DOPC:DOPS 9:1 liposomes with MscL mutant G22C
Description: Insulin and fluorescein isothiocyanate (FITC) were obtained from Sigma (St. Louis, Mo., USA). Insulin (23 mg) was reacted with a four-fold molar ratio of FITC in 0.1 N borate buffer, pH 9.0, for 60 min. The pH was lowered to 7.5 with 0.1 N boric acid and the solution was extensively dialyzed, using a dialysis membrane with a molecular weight cut-off of 2,000 Da, for 96 hours against water at 4° C. with frequent water changes. Absorption spectra of the dialyzed sample were used to quantify the protein concentration and the stoichiometry of labeling. Concentrations of FITC and insulin were both 0.1 mM. The labeled insulin was encapsulated by three freeze-thaw cycles, followed by extrusion through a 400 nm polycarbonate membrane. The proteoliposomes containing labeled insulin were separated from free labeled insulin by using sephadex G-50 column chromatography equilibrated with 145 mM NaCl, 300 mM Sucrose, 25 mM Tris.HCl and 1 mM EDTA, pH 8.0.
Samples were taken at different time points and Triton was added as a control for maximum fluorescence (100%). Samples were filtered over a 450 nm Cellulose Nitrate filter (Schleicher & Schuell BA85). The filtrate of 2 ml was retained and the fluorescence of 200 I11 of each filtrate was monitored in an fl600 plate reader (Bio-Tek). All experiments were performed in triplicate.

[8] = free compound
Description: The effect of drug formulation on the rate of drug release in vivo was tested in the rat by external counting of radioactivity. The model was based on liposomal formulations that remain at the subcutaneous site of administration with an encapsulated model drug which, when released, was rapidly removed from the subcutaneous site of injection and excreted into the urinary bladder.
Male Wistar rats were anaesthetized using iso-flurane O2/NO throughout the study. Liposome encapsulated MAG3 in a 0.5 ml volume was injected subcutaneously (in the neck) and accumulation of radioactivity in the urinary bladder was constantly monitored by external counting using a gamma-camera (window: 140 keV, 250 keV width, 1 min. time resolution). At the end of the study (after 40 min.), a 10 times higher dose of free MAG3 was administered subcutaneously or intravenously to measure the urinary excretion rates of those formulations.

[9] = humans; cited from earlier work
[10] = DOPC:DOPS 90:10 liposomes with MscL mutant G22C
[11] = 1 mM MTSET, DOPC:DOPS 90:10 liposomes with MscL mutant G22C

Molecule: 2-aminoethyl methanethiosulfonate [MTSEA]
- kinetics of calcein release compared to MTSET [1, 10]: significantly slower
- effect of attachment to the cysteine on gating under patch clamp [2]: gate spontaneously

Molecule: Br.BrCc1ccncc1 [BP, 4-(bromomethyl)pyridine hydrobromide]
- channel behavior of labeled MscL mutant G22C ([3]; pH 5.2, +20 mV): prefers not to open completely but only to subconducting states and the dwell times get shorter
- channel behavior of labeled MscL mutant G22C ([3]; pH 7.2, +20 mV): behaves as an unlabeled channel

Molecule: COC(=O)C(I)Cc1cnc[nH]1 (stereo not shown) [IMI, methyl 2-iodo-3-(5-imidazolyl)propanoate]
- channel state in calcein efflux assays ([1]; IMI labeled MscL mutant G22C, pH 7.0 and 8.0 (data not shown)): tendency to stay open at pH 7.0 and 8.0
- ratio of tension sensitivity of MscL over MscS ([4]; spheroplasts, pH 6): 1.48

- first phase urinary excretion [6]: completed in the first couple of hours
Molecule: CNC(=O)c1c(I)c(NC(C)=O)c(I)c(C(=O)O)c1I [IOT, Iodo-thalamate]
- excretion via glomerular filtration [5]: 1 ml.min^−1.100 g rat

Molecule: C[N+](C)(C)CCSS(C)(=O)=O [MTSET, [2-(Trimethylammonium)ethyl]methanethiosulfonate]
- encapsulated calcein released [1, 11]: 80%
- time for half of the MscL mediated efflux [1, 11]: ≤ 7 s
- calcein release upon addition ([1]; DOPC:Cholesterol 80:20 liposomes with vs without MscL mutant G22C): effective release of calcein
- effect of attachment to the cysteine on gating under patch clamp [2]: gate spontaneously
- FITC-insulin efflux upon activation [7]: release of FITC-insulin
- effect of attachment on pressure sensitivity and gating ([4]; attached to MscL mutant G22C in spheroplasts): spontaneous gating of the channel

Molecule: mertiatide [MAG3]
- time to 50% urinary excretion ([8]; intravenous): 3 min
- time to 50% urinary excretion ([8]; subcutaneous): > 12 min
- active tubular secretion [9]: 600 mL/min

Molecule: sodium (2-sulfonatoethyl) methane thiosulfonate [MTSES]
- kinetics of calcein release compared to MTSET [1, 10]: significantly slower
- effect of attachment to the cysteine on gating under patch clamp [2]: gate spontaneously
